Patent US12419873B2, “Use of JAK inhibitors in preparation of drugs for treating JAK kinase-related diseases” (ZHUHAI UNITED LABORATORIES CO., LTD., priority 2020, dated 2025)
pIC50: −log10 of the molar value. “Also recorded” adds a separate entry of the source.

Legend:
JAK1 = JAK1 (Homo sapiens (Human), UniProt P23458); assay: In vitro activity test of JAK1 kinase; assay type: biochemical
Method: (§1) Recombinant human JAK1, JAK2, JAK3, TyK2 protease, main instruments and reagents were provided by Eurofins in the UK
(§2) All compounds were prepared into a 100% DMSO solution and reached 50 times the final determined concentration. The test compound was diluted by 3 times the concentration gradient, and the final concentration was 10 μM to 0.001 μM, 9 concentrations in total, and the content of DMSO in the detection reaction was 2%. The working stock solution of the compound was added to a determination hole as the first component of the reaction, and then the remaining components were added according to the detailed scheme determination below.
(§3) Mg/ATP mixture was added to start the reaction. After incubation at room temperature for 40 minutes, 0.5% phosphoric acid was added to stop the reaction.

JAK3 = JAK3 (Homo sapiens (Human), UniProt P52333); assay: In vitro activity test of JAK3 kinase; assay type: biochemical
JAK3, sequence (P52333 whole entry): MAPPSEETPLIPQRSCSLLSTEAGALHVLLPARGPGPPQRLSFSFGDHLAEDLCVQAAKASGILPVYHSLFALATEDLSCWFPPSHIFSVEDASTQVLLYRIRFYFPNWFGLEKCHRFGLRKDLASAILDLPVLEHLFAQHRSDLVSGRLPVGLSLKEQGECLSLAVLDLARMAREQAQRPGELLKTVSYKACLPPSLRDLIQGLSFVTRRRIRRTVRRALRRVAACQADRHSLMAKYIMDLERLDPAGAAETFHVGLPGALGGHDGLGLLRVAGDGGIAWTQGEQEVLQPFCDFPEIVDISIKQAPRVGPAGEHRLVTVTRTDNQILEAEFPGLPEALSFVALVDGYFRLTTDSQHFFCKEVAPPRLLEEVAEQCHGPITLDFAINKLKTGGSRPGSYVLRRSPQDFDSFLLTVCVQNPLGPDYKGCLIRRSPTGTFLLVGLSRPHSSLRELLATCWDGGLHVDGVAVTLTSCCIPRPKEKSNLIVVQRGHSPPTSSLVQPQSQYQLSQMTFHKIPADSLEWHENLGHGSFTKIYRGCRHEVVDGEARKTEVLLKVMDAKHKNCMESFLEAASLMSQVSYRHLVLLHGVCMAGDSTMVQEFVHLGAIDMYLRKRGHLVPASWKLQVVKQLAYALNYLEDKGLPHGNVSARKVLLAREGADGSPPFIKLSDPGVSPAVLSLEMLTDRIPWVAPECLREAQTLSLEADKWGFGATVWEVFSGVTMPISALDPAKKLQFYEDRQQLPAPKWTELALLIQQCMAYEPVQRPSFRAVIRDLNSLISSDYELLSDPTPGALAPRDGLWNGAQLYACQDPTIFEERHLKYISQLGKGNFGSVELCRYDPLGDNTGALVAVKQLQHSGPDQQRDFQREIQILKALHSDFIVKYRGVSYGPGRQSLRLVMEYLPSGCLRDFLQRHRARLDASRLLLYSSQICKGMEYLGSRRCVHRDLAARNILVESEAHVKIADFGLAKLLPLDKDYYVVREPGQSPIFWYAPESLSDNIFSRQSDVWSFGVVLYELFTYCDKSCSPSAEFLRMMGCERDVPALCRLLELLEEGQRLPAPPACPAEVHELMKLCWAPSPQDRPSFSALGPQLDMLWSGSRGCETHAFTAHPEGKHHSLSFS
Method: as §1, §2, §3

TYK2 = TYK2 (Homo sapiens (Human), UniProt P29597); assay: In vitro activity test of TYK2 kinase; assay type: biochemical
TYK2, sequence (P29597 whole entry): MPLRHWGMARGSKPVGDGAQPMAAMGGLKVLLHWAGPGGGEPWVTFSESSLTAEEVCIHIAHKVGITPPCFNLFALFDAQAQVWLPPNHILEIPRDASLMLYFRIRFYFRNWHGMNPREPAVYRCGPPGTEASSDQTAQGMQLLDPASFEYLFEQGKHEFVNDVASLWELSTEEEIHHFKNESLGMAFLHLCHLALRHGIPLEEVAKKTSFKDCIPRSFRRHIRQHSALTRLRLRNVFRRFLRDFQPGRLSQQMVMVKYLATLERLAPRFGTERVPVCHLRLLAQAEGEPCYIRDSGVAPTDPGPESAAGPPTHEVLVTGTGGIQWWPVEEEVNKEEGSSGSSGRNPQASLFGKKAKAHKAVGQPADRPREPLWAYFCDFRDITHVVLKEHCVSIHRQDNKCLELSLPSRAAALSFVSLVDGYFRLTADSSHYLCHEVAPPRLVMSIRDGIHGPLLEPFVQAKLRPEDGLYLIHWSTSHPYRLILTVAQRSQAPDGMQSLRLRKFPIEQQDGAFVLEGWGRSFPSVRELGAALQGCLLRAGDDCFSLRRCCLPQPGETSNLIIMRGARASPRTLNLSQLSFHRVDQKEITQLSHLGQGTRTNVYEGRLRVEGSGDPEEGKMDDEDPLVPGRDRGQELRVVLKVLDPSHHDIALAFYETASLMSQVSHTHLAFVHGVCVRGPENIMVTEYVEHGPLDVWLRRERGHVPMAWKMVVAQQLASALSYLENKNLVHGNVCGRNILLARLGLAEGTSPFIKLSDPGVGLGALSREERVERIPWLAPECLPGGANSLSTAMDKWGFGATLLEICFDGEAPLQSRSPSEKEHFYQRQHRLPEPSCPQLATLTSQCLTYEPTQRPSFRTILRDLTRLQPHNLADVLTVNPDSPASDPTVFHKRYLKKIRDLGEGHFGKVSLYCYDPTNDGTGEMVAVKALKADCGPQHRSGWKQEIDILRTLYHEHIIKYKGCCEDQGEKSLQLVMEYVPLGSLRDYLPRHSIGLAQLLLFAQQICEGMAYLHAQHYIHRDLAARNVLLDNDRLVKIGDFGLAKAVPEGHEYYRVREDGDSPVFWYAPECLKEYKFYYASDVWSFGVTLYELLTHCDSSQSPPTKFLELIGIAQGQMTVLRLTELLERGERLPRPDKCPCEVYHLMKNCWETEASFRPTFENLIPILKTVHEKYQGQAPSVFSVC
Method: as §1, §2, §3

[1] = tested on: DSS induced ulcerative colitis and Crohn's disease in mice; assay: In vivo pharmacodynamic study on DSS induced inflammatory bowel disease (IBD) in mice; parameters: species or system mice (C57BL/6); Colon length: unit not given here; conditions: for Colon length: after the experiment
Text: Inflammatory bowl disease (IBD) is a kind of recurrent disease. It is difficult to cure, has a high recurrence rate, and has a poor prognosis, it has a certain correlation with the incidence of colon cancer. The development of drugs for the treatment of IBD will help alleviate the symptoms of ulcerative colitis and Crohn's disease and improve the quality of life of patients. The mouse inflammation model induced by dextran sulfate sodium (DSS) is similar to the human disease ulcerative colitis and Crohn's disease. It is a common classical model for preclinical evaluation of drug efficacy.
Preparation method of DSS: 20 g DSS was weighed, 1000 mL drinking water was added to form 2% DSS solution, and stored in a 4° C. refrigerator. It is effective within one month.
Preparation method of a solvent: Vehicle solution is an aqueous solution containing 0.5% methylcellulose and 0.5% Tween 80. Firstly, 5 g of methylcellulose was dissolved in 990 mL of pure water, then 5 g of Tween 80 was added in small amount for many times, mixed evenly and stored at room temperature.
Preparation method of compounds: the compound was weighed, an aqueous solution with a mass ratio of 0.5% methylcellulose+0.5% Tween 80 was added, and it was processed by ultrasonic until it was dissolved.
The adaptation period of the animals was 3 days. After adaptation, the animals were weighed every day. The blank group was given drinking water, and the other groups were given drinking water containing 2% DSS. The water volume was 5 mL/animal/day. The animals in the test drug group were administrated by gavage once a day. The blank group and […] group were given the same volume of vehicle, with the administration volume of 10 mL/kg. Every other day, the fecal viscosity was evaluated, feces were collected for fecal occult blood detection, and the disease activity index (DAI) score was calculated. DSS consumption was detected every day. Fresh DSS solution was replaced every two days. The dosing cycle was continuous intragastric administration for 7 days, followed by 4 days of drug withdrawal, followed by 7 days of continuous intragastric administration. Normal drinking water was changed when intragastric administration was stopped.
DAI is the sum of the scores of body weight, fecal viscosity and fecal occult blood. Among them, the semi quantitative detection method of piramine cave was adopted for detecting fecal occult blood, including adding piramine cave to the sample first, then adding hydrogen peroxide and ethanol solution, and reading and scoring the color within 2 min. Immediately generating purple blue is marked as 4+, generating the purple blue within 10 s is marked as 3+, generating purple red within 1 min is marked as 2+, and gradually generating the purple red within 1-2 min is marked as 1+, and generating no color reaction of purple orchid or purple red within the reading time is recorded as negative (−). After the experiment, the colon and spleen were taken, and the length of colon and the weight of spleen were measured. The spleen index was the ratio of spleen weight to body weight.

[2] = tested on: DNCB induced allergic dermatitis in mice; assay: In vivo pharmacodynamic study on DNCB induced allergic dermatitis (AD) in mice
Method: The animal allergic dermatitis model induced by 1-chloro-2,4-dinitrobenzene (DNCB) is basically consistent with the clinical manifestations of AD patients.
Preparation method of solvent: vehicle solution is 30% PEG-400+70% (5% HP-β-CD), pH 4-5. Firstly, 35 g HP-β-CD was dissolved in 700 mL MilliQ pure water, 300 mL PEG-400 was added and mixed well, the pH was adjusted to 4-5, and stored at room temperature.
Preparation method of compounds: the compounds were weighed and added to 30% PEG-400+ 70% (5% HP-β-CD) solution (by volume), and ultrasonically processed. After the solution was fully mixed, it is load into glass bottles and stored in a 4° C. refrigerator.
Seventy male Balb/c mice were weighed and randomly divided into 7 groups with 10 mice in each group.
The animal adaptation period was 3 days. It was adapted to shaving on the back. After 2 days, it was sensitized with the modeling solution, coated with 20 μL 0.5% DNCB solution on the right ear of the mouse, applied with 200 μL 0.5% DNCB solution on the back, once a day for 3 days. The mice were stimulated from day 4, and applied with 10 μL 1% DNCB solution on the right ear of mice, 100 μL 1% DNCB solution on the back of mice, respectively, once every 3 days.
On days 3, 9, 15, 21, and 27, the severity of specific dermatitis was evaluated by evaluating four clinical inflammatory indicators of atopic dermatitis: Erythema/bleeding, scar/dryness, edema, and infiltration/erosion. Each evaluation index has four grades: 0, none; 1. slight; 2. moderate; 3. obvious; 4. very obvious. Sum the scores represents score of the skin. […] The spleen was taken and the spleen index was calculated: spleen index=spleen weight (mg)/body weight (g).
The experimental data were expressed by means±standard error (Mean±SEM), and all data were statistically analyzed by one-way ANOVA, with P<0.05 as the statistical difference.

[3] = day 2, 15 mg/kg p.o. qd, Mean±SEM
[4] = day 4, 15 mg/kg p.o. qd, Mean±SEM
[5] = day 6, 15 mg/kg p.o. qd, Mean±SEM
[6] = day 8, 15 mg/kg p.o. qd, Mean±SEM
[7] = day 12, 15 mg/kg p.o. qd, Mean±SEM
[8] = day 14, 15 mg/kg p.o. qd, Mean±SEM
[9] = day 16, 15 mg/kg p.o. qd, Mean±SEM
[10] = day 18, 15 mg/kg p.o. qd, Mean±SEM
[11] = after the experiment, 30 mg/kg p.o. qd, 28 days, Mean±SEM
[12] = day 3, 30 mg/kg p.o. qd from day 4, Mean±SEM
[13] = day 4, 30 mg/kg p.o. qd, Mean±SEM
[14] = day 9, 30 mg/kg p.o. qd, Mean±SEM
[15] = day 10, 30 mg/kg p.o. qd, Mean±SEM
[16] = day 13, 30 mg/kg p.o. qd, Mean±SEM
[17] = day 15, 30 mg/kg p.o. qd, Mean±SEM
[18] = day 16, 30 mg/kg p.o. qd, Mean±SEM
[19] = day 21, 30 mg/kg p.o. qd, Mean±SEM
[20] = day 27, 30 mg/kg p.o. qd, Mean±SEM
[21] = day 21 of administration, 30 mg/kg p.o.
[22] = day 2, 30 mg/kg p.o. qd, Mean±SEM
[23] = day 6, 30 mg/kg p.o. qd, Mean±SEM
[24] = day 8, 30 mg/kg p.o. qd, Mean±SEM
[25] = day 12, 30 mg/kg p.o. qd, Mean±SEM
[26] = day 14, 30 mg/kg p.o. qd, Mean±SEM
[27] = day 18, 30 mg/kg p.o. qd, Mean±SEM

JAK1, sequence (P23458 whole entry): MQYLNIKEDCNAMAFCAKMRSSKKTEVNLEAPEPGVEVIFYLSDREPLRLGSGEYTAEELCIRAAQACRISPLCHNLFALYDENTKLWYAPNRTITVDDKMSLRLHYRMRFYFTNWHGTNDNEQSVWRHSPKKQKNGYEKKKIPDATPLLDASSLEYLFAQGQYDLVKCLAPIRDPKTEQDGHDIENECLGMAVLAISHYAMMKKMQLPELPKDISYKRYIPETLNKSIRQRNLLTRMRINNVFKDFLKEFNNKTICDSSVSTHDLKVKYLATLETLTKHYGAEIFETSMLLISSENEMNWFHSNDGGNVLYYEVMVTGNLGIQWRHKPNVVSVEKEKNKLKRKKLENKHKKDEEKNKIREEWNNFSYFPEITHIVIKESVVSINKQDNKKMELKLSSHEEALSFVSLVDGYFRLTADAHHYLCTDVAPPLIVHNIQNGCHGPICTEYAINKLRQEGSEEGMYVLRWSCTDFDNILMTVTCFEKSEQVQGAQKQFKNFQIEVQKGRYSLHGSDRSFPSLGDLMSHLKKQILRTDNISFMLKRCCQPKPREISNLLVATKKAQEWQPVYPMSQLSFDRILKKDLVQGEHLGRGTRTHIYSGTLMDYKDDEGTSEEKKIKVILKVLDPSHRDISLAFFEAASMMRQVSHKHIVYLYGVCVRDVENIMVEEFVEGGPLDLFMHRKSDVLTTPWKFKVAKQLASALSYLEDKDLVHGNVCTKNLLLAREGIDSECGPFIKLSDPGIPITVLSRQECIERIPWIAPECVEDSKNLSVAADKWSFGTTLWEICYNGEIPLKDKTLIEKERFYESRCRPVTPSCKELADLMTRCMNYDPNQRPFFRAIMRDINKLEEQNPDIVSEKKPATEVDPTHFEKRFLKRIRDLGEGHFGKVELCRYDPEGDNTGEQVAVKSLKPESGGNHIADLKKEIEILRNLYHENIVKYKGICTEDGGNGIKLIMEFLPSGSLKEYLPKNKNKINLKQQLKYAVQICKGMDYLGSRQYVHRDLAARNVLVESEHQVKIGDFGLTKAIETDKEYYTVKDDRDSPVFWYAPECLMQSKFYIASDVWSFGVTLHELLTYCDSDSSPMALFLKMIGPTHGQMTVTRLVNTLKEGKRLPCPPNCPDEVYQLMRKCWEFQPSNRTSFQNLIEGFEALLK

Structure (SMILES): O=C(Nc1nc2cccc([C@H]3CCC4(C3)CN(C(=O)[C@@H]3CC3(F)F)C4)n2n1)C1CC1 (single isomer, unassigned) [Compound 7-7]
- pIC50 (JAK1): 7.20
- pIC50 (JAK3): < 5.00
- pIC50 (TYK2): 6.08

Structure (SMILES): N#CC1(C(=O)N2CC3(CCC(c4cccc5nc(NC(=O)C6CC6)nn45)CC3)C2)CC1 [Compound 1-11]
- Colon length ([1]; 15 mg/kg p.o. qd, Mean±SEM): 2.84 ± 0.21
- Weight of mice ([1]; day 1, 15 mg/kg p.o. qd, Mean±SEM): 22.63 ± 0.29
- DAI score [1, 3]: 0.30 ± 0.15
- Weight of mice [1, 3]: 22.64 ± 0.28
- Weight of mice ([1]; day 3, 15 mg/kg p.o. qd, Mean±SEM): 22.20 ± 0.28
- DAI score [1, 4]: 1.50 ± 0.34
- Weight of mice [1, 4]: 21.75 ± 0.25
- Weight of mice ([1]; day 5, 15 mg/kg p.o. qd, Mean±SEM): 20.90 ± 0.30
- DAI score [1, 5]: 3.50 ± 0.27
- Weight of mice [1, 5]: 20.33 ± 0.28
- Weight of mice ([1]; day 7, 15 mg/kg p.o. qd, Mean±SEM): 20.64 ± 0.38
- DAI score [1, 6]: 4.20 ± 0.79
- Weight of mice [1, 6]: 20.44 ± 0.58
- Weight of mice ([1]; day 9, 15 mg/kg p.o. qd, Mean±SEM): 19.49 ± 0.77
- Weight of mice ([1]; day 10, 15 mg/kg p.o. qd, Mean±SEM): 19.00 ± 0.87
- Weight of mice ([1]; day 11, 15 mg/kg p.o. qd, Mean±SEM): 19.73 ± 0.77
- DAI score [1, 7]: 3.11 ± 0.49
- Weight of mice [1, 7]: 20.09 ± 0.90
- Weight of mice ([1]; day 13, 15 mg/kg p.o. qd, Mean±SEM): 20.88 ± 0.86
- DAI score [1, 8]: 3.22 ± 0.79
- Weight of mice [1, 8]: 20.67 ± 0.84
- Weight of mice ([1]; day 15, 15 mg/kg p.o. qd, Mean±SEM): 20.82 ± 0.91
- DAI score [1, 9]: 4.44 ± 0.67
- Weight of mice [1, 9]: 20.41 ± 1.05
- Weight of mice ([1]; day 17, 15 mg/kg p.o. qd, Mean±SEM): 19.85 ± 1.05
- DAI score [1, 10]: 5.89 ± 0.51
- Weight of mice [1, 10]: 18.84 ± 1.06
- Effect on the weight of mice (in words) ([2]; 30 mg/kg p.o. qd, 28 days): no significant effect
- IgE concentration in serum [2, 11]: 7.46 ± 1.34
- Thickness of the right ear [2, 11]: 0.283 ± 0.006
- Weight of mice ([2]; day 1, 30 mg/kg p.o. qd from day 4, Mean±SEM): 19.45 ± 0.59
- Skin score [2, 12]: 0.9 ± 0.3
- Weight of mice [2, 13]: 20.15 ± 0.46
- Skin score [2, 14]: 3.6 ± 1.1
- Weight of mice [2, 15]: 20.21 ± 0.62
- Weight of mice [2, 16]: 20.24 ± 0.41
- Skin score [2, 17]: 4.4 ± 0.8
- Weight of mice [2, 18]: 20.63 ± 0.43
- Weight of mice ([2]; day 19, 30 mg/kg p.o. qd, Mean±SEM): 22.50 ± 0.40
- Skin score [2, 19]: 5.4 ± 0.7
- Weight of mice ([2]; day 22, 30 mg/kg p.o. qd, Mean±SEM): 23.97 ± 0.42
- Weight of mice ([2]; day 25, 30 mg/kg p.o. qd, Mean±SEM): 22.45 ± 0.36
- Skin score [2, 20]: 2.9 ± 1.2
- Weight of mice ([2]; day 28, 30 mg/kg p.o. qd, Mean±SEM): 22.66 ± 0.34

Structure (SMILES): O=C(Nc1nc2cccc(C3CCC4(CC3)CN(C(=O)[C@@H]3CC3(F)F)C4)n2n1)C1CC1 [Compound 1-13]
- Effect on treating allergic dermatitis (in words) ([2]; 30 mg/kg p.o. qd, DNCB mice): good disease treatment effect; also recorded: significant effect
- Thickness of the right ear after drug intervention (in words) ([2]; 30 mg/kg p.o., vs DNCB group): significantly decreased
- Thickness of the right ear [2, 11]: 0.232 ± 0.004
- Skin score [2, 12]: 0.5 ± 0.5
- Skin score [2, 14]: 3.9 ± 1.6
- Skin score [2, 17]: 3.7 ± 0.6
- Skin score [2, 19]: 5.0 ± 1.0
- Effect on skin score compared with positive drug Alonson [2, 21]: better effect
- Skin score compared with DNCB group (in words) [2, 21]: significantly decreased
- Skin score [2, 20]: 1.5 ± 0.5
- Skin score compared with DNCB group (in words) ([2]; day 27 of administration, 30 mg/kg p.o.): significant reduction

Structure (SMILES): O=C(Nc1nc2cccc(-c3ccc(CN4CCS(=O)(=O)CC4)cc3)n2n1)C1CC1 [Filgotinib, reference compound]
- Colon shortening caused by DSS, compared with DSS group (in words) ([1]; 30 mg/kg p.o.): can reduce colon shortening
- Increase of spleen index induced by DSS (in words) ([1]; 30 mg/kg p.o.): could reduce the increase of spleen index
- Significance of inhibition of spleen index increase ([1]; 30 mg/kg p.o., vs DSS group): significant inhibitory effect
- Colon length ([1]; 30 mg/kg p.o. qd, Mean±SEM): 3.13 ± 0.10
- Weight of mice ([1]; day 1, 30 mg/kg p.o. qd, Mean±SEM): 22.10 ± 0.42
- DAI score [1, 22]: 1.20 ± 0.42
- Weight of mice [1, 22]: 22.35 ± 0.41
- Weight of mice ([1]; day 3, 30 mg/kg p.o. qd, Mean±SEM): 22.11 ± 0.31
- DAI score [1, 13]: 2.20 ± 0.61
- Weight of mice [1, 13]: 22.07 ± 0.38
- Weight of mice ([1]; day 5, 30 mg/kg p.o. qd, Mean±SEM): 21.61 ± 0.47
- DAI score [1, 23]: 2.90 ± 0.43
- Weight of mice [1, 23]: 21.21 ± 0.55
- Weight of mice ([1]; day 7, 30 mg/kg p.o. qd, Mean±SEM): 20.28 ± 0.47
- DAI score [1, 24]: 6.40 ± 0.69
- Weight of mice [1, 24]: 19.65 ± 0.47
- Weight of mice [1, 14]: 18.57 ± 0.49
- Weight of mice [1, 15]: 17.98 ± 0.62
- Weight of mice ([1]; day 11, 30 mg/kg p.o. qd, Mean±SEM): 17.85 ± 0.80
- DAI score [1, 25]: 3.56 ± 0.82
- Weight of mice [1, 25]: 18.27 ± 0.91
- Weight of mice [1, 16]: 19.21 ± 0.94
- DAI score [1, 26]: 3.00 ± 0.57
- Weight of mice [1, 26]: 20.16 ± 0.61
- Weight of mice [1, 17]: 21.11 ± 0.58
- DAI score [1, 18]: 3.00 ± 0.96
- Weight of mice [1, 18]: 21.09 ± 0.53
- Weight of mice ([1]; day 17, 30 mg/kg p.o. qd, Mean±SEM): 20.58 ± 0.38
- DAI score [1, 27]: 3.52 ± 0.73
- Weight of mice [1, 27]: 19.59 ± 0.34
- Spleen index ([1]; ratio of spleen weight to body weight, 30 mg/kg p.o. qd, Mean±SEM): 4.04 ± 0.18
